PubChem BioAssay (NCI)
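48-hour exposure; five concentrations; linearly interpolated endpoints. Abbreviation: GI50, concentration required for 50% inhibition of growth. TGI: concentration producing complete growth inhibition.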

Experiments:
Assay in all cases: growth of human tumour cells (NCI), 48 h
[1] = test system: MDA-MB-231 breast
[2] = test system: ACHN renal
[3] = test system: RXF 393 renal
[4] = test system: HS 578T breast
[5] = test system: NCI-H226 lung
[6] = test system: M14 melanoma
[7] = test system: SW-620 colon
[8] = test system: NCI-H460 lung
[9] = test system: IGROV1 ovarian
[10] = test system: PC-3 prostate

Row | Compound | GI50 [1] [µM] | TGI [1] [µM] | GI50 [2] [µM] | TGI [2] [µM] | GI50 [3] [µM] | TGI [3] [µM] | GI50 [4] [µM] | TGI [4] [µM] | GI50 [5] [µM] | TGI [5] [µM] | GI50 [6] [µM] | TGI [6] [µM] | GI50 [7] [µM] | TGI [7] [µM] | GI50 [8] [µM] | TGI [8] [µM] | GI50 [9] [µM] | TGI [9] [µM] | GI50 [10] [µM] | TGI [10] [µM]
1 | COc1cc(-c2nc3ccccc3s2)ccc1NC(=O)COc1ccc(Cl)cc1 | 4.98 | > 100 | 4.92 | > 100 | 3.25 | 11.3 | 3.73 | > 100 | 4.31 | 59.2 | 8.54 | > 100 | 53.7 | > 100 | 2.99 | > 100 | 1.14 | 21.2 | 3.51 | > 100
2 | O=C1c2nsnc2C(=O)c2c(F)c(F)c(F)c(F)c21 | 1.38 | 2.78 | 0.501 | 1.2 | 0.339 | 1.09 | 0.342 | 1.96 | 1.93 | 4.58 | 0.249 | 0.629 | 0.172 | 0.348 | 0.758 | 2.34 | 1.52 | 5.07 | 1.51 | 3.1
3 | Cc1cc(O)ccc1C1=NN(c2ccc(S(C)(=O)=O)cc2)C(=O)CC1 | 17.1 | > 100 | 37.8 | > 100 | 12.8 | > 100 | 4.15 | > 100 | > 100 | > 100 | 3.85 | > 100 | 3.32 | > 100 | 3.87 | > 100 | 7.13 | > 100 | 14.8 | > 100
4 | CNC(=O)OCc1c2ccncc2c(C)c2c1[nH]c1ccccc12 | – | 2.87 | – | 0.522 | – | 0.17 | – | 3.12 | – | 1.25 | – | 2.95 | – | 2.38 | – | 1.81 | – | 1.3 | – | 20.7
5 | Clc1cccc(Cl)c1C1CSc2ccccc2N=C1c1ccccc1 (stereo not given) | 2.95 | 14.1 | 2.45 | 7.3 | 9.74 | 24.1 | 6.26 | 57.6 | 20.5 | 74.2 | 8.44 | 23.1 | 2.34 | 5.64 | 4.04 | 15.6 | 3.13 | 11.8 | 5.6 | 20.9
6 | C/C(=C\CCc1ccoc1)CC/C=C(\C)CCCN1CCOCC1 | 2.9 | 12.2 | 8.24 | 24.1 | 9.17 | 23.2 | 4.07 | 24.7 | 10.5 | 30.7 | 1.65 | 3.42 | 3.43 | 14.6 | 4.79 | 17.8 | 15.4 | 36.8 | 2.02 | 10.5
7 | Clc1ccc2c(c1)N(CCCN1CCCC1)c1ccccc1S2 | 3.42 | 12.8 | 4.86 | 17.9 | 3.47 | 12.1 | 4.92 | 30.8 | 19.4 | 48.3 | 1.92 | 3.97 | 10.7 | 25.8 | 15.2 | 35.4 | 7.84 | 23.3 | 4.38 | 16.1
